Experimental data reported in ChEMBL document CHEMBL6134859, “Unlocking the antiviral arsenal: Structure-guided optimization of small-molecule inhibitors against RSV and hCoV-229E” (Eur J Med Chem, 2025).
Converted amounts (≈) assume the structure as drawn.

Test: Kinetic solubility of the compound in 1%DMSO/PBS measured after 5 mins
Type: physicochemical
Details: read-out: Kinetic_solubility

Row | SMILES | solubility kinetic at 5 min [µM]
1 | COc1ccc(C(C)=O)cc1COc1ncnc2c(-c3ccncc3)cccc12 | 32 (≈ 12.3 µg/mL)
2 | COc1ccc(C(C)=O)cc1COc1ncnc2cccc(Cl)c12 | 54 (≈ 18.5 µg/mL)
3 | COc1ccc(C(C)=O)cc1CNc1ncnc2c(Cl)cc(Cl)cc12 | > 100
4 | COc1ccc(C(C)=O)cc1COc1ncnc2c(C)cccc12 | 57 (≈ 18.4 µg/mL)
5 | Clc1cc(Cl)c2ncnc(OCc3ccc(Br)cc3)c2c1 | 12 (≈ 4.61 µg/mL)
6 | COC(=O)c1ccccc1COc1ncnc2c(Cl)cc(Cl)cc12 | 22 (≈ 7.99 µg/mL)
7 | CCc1ccc(OC)c(COc2ncnc3c(Cl)cc(Cl)cc23)c1 | 34 (≈ 12.4 µg/mL)
8 | COc1ccc(C(C)=O)cc1C(=O)Nc1ncnc2c(Cl)cc(Cl)cc12 | > 100
9 | COc1ccc(C(C)=O)cc1COc1ncnc2c(F)cccc12 | > 100
10 | COc1ccc(C(C)=O)cc1CSc1ncnc2c(Cl)cc(Cl)cc12 | 17 (≈ 6.69 µg/mL)
11 | Clc1cc(Cl)c2ncnc(OCc3cccc4c3OCO4)c2c1 | 21 (≈ 7.33 µg/mL)
12 | O=C(O)c1cccc(COc2ncnc3c(Cl)cc(Cl)cc23)c1 | > 100
13 | COc1ccc(C(C)=O)cc1COc1ncnc2c(Cl)ccc(Cl)c12 | 37 (≈ 14 µg/mL)
14 | COc1cccc(COc2ncnc3c(Cl)cc(Cl)cc23)c1 | 22 (≈ 7.37 µg/mL)
15 | COc1ccc(C(C)=O)cc1COc1ncnc2c(S(C)(=O)=O)cccc12 | > 100
16 | COc1ccc(C(C)=O)cc1COc1ncnc2c(Br)cccc12 | 41 (≈ 15.9 µg/mL)
17 | COc1ccc(C(C)=O)cc1COc1ncnc2c(OCc3cc(C(C)=O)ccc3OC)cccc12 | 53 (≈ 25.8 µg/mL)
18 | Clc1cc(Cl)c2ncnc(OCc3ccccc3-c3ccccc3)c2c1 | 16 (≈ 6.1 µg/mL)
19 | COc1ccc(C(C)=O)cc1COc1ncnc2ccc(Cl)cc12 | 60 (≈ 20.6 µg/mL)
20 | COc1ccc(C(C)=O)cc1COc1ncnc2c(C#N)cccc12 | > 100
21 | Clc1cc(Cl)c2ncnc(OCc3ccccc3Br)c2c1 | 20 (≈ 7.68 µg/mL)

Row | SMILES | solubility kinetic at 5 min [µM]
22 | COC(=O)c1cccc2c(OCc3cc(C(C)=O)ccc3OC)ncnc12 | > 100
23 | COc1ccc(C(C)=O)cc1COc1ncnc2cc(Cl)ccc12 | 26 (≈ 8.91 µg/mL)
24 | Clc1cc(Cl)c2ncnc(OCc3ccccc3-c3cccnc3)c2c1 | 60 (≈ 22.9 µg/mL)
25 | O=C(O)c1ccccc1COc1ncnc2c(Cl)cc(Cl)cc12 | > 100
26 | COc1ccc(C(C)=O)cc1COc1ncnc2c(-c3ccccc3)cccc12 | 35 (≈ 13.5 µg/mL)
27 | CC(=O)c1cccc(COc2ncnc3c(Cl)cc(Cl)cc23)c1 | 46 (≈ 16 µg/mL)
28 | COc1ccc(C(C)=O)cc1COc1ncnc2c(Cl)cc(C)cc12 | 66 (≈ 23.5 µg/mL)
29 | O=C(O)c1ccc(COc2ncnc3c(Cl)cc(Cl)cc23)cc1 | > 100
30 | COc1ccc(C(C)=O)cc1COc1ncnc2c(Cl)cc(Cl)cc12 | 62 (≈ 23.4 µg/mL)
31 | COCCOc1ccccc1COc1ncnc2c(Cl)cc(Cl)cc12 | 42 (≈ 15.9 µg/mL)
32 | COc1ccc(C(C)=O)cc1COc1ncnc2c(C)cc(C)cc12 | > 100
33 | Cc1ccc(COc2ncnc3c(Cl)cc(Cl)cc23)cc1 | 12 (≈ 3.83 µg/mL)
34 | COc1ccc(C(C)=O)cc1COc1ncnc2c(C)cc(Cl)cc12 | 50 (≈ 17.8 µg/mL)
35 | Clc1ccc(COc2ncnc3c(Cl)cc(Cl)cc23)cc1 | 18 (≈ 6.11 µg/mL)
36 | CCc1ccccc1COc1ncnc2c(Cl)cc(Cl)cc12 | 28 (≈ 9.33 µg/mL)
37 | COc1ccc(C(C)=O)cc1COc1ncnc2c(C3CC3)cccc12 | 27 (≈ 9.41 µg/mL)
38 | COc1cccc(OC)c1COc1ncnc2c(Cl)cc(Cl)cc12 | 21 (≈ 7.67 µg/mL)
39 | COc1cc(COc2ncnc3c(Cl)cc(Cl)cc23)cc(C(C)=O)c1 | 21 (≈ 7.92 µg/mL)
40 | COc1ccc(C(C)=O)cc1COc1ncnc2c(N3CCOCC3)cccc12 | > 100
41 | COc1ccc(COc2ncnc3c(Cl)cc(Cl)cc23)cc1C(C)=O | 39 (≈ 14.7 µg/mL)
42 | COc1ccc(C(C)=O)cc1COc1ncnc2cc(Cl)cc(Cl)c12 | 41 (≈ 15.5 µg/mL)

Row | SMILES | solubility kinetic at 5 min [µM]
43 | COc1ccc(C(C)=O)cc1COc1ncnc2c(O)cccc12 | 55 (≈ 17.8 µg/mL)
44 | Fc1ccc(COc2ncnc3c(Cl)cc(Cl)cc23)cc1 | 22 (≈ 7.11 µg/mL)
45 | COc1ccc(C(C)=O)cc1COc1ncnc2c(C(F)(F)F)cccc12 | 33 (≈ 12.4 µg/mL)
46 | COc1cccc(C(C)=O)c1COc1ncnc2c(Cl)cc(Cl)cc12 | 44 (≈ 16.6 µg/mL)
47 | COc1ccc(COc2ncnc3c(Cl)cc(Cl)cc23)cc1 | 44 (≈ 14.7 µg/mL)
48 | COc1cc(C(C)=O)ccc1COc1ncnc2c(Cl)cc(Cl)cc12 | 26 (≈ 9.81 µg/mL)
49 | N#Cc1ccc(COc2ncnc3c(Cl)cc(Cl)cc23)cc1 | 25 (≈ 8.25 µg/mL)
50 | CC(=O)c1ccc(-c2cccnc2)c(COc2ncnc3c(Cl)cc(Cl)cc23)c1 | > 100
51 | COc1ccc(C(C)=O)cc1COc1ncnc2c(Cl)cccc12 | 58 (≈ 19.9 µg/mL)
52 | COc1ccc(C(C)=O)cc1COc1ncnc2c(OC)cccc12 | > 100
53 | Fc1ccccc1COc1ncnc2c(Cl)cc(Cl)cc12 | 26 (≈ 8.4 µg/mL)
54 | Clc1cc(Cl)c2ncnc(OCc3ccccc3)c2c1 | 25 (≈ 7.63 µg/mL)
55 | COC(=O)c1ccc(COc2ncnc3c(Cl)cc(Cl)cc23)cc1 | 25 (≈ 9.08 µg/mL)
56 | COc1c(COc2ncnc3c(Cl)cc(Cl)cc23)cccc1C(C)=O | 57 (≈ 21.5 µg/mL)
57 | COc1ccccc1COc1ncnc2c(Cl)cc(Cl)cc12 | 32 (≈ 10.7 µg/mL)
58 | CCc1ccc(C(C)=O)cc1COc1ncnc2c(Cl)cc(Cl)cc12 | 21 (≈ 7.88 µg/mL)
59 | FC(F)(F)c1ccc(COc2ncnc3c(Cl)cc(Cl)cc23)cc1 | 18 (≈ 6.72 µg/mL)
60 | COc1ccccc1CSc1ncnc2c(Cl)cc(Cl)cc12 | 24 (≈ 8.43 µg/mL)
61 | CC(=O)c1ccccc1COc1ncnc2c(Cl)cc(Cl)cc12 | 43 (≈ 14.9 µg/mL)
